Test results reported in PubChem BioAssay (NCI).
“And” between values parts separate entries of the source, which are not always exact repeats. Equal entries are not always repeated.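 How tested: cells in 96-well plates exposed to compound for 48 hours at five concentrations. GI50 = concentration required for 50% inhibition of growth. TGI denotes the concentration required for complete inhibition of growth.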

How the values were obtained:
Assay in all cases: NCI-60 cell line screen, 48 h
[1] = test system: RXF-631 renal
[2] = test system: DLD-1 colon
[3] = test system: HOP-18 NSCLC
[4] = test system: MDA-MB-435
[5] = test system: BT-549 breast
[6] = test system: T-47D breast
[7] = test system: MDA-N

SMILES	TGI [1] [µM]	TGI [2] [µM]	TGI [3] [µM]	GI50 [4]	TGI [4] [µM]	GI50 [5]	TGI [5]	GI50 [6]	TGI [6]	TGI [7] [µM]
CC(C)C/C(CC(=O)CCC(=O)Nc1ccccc1[N+](=O)[O-])=N\NC(=O)c1cc2ccccc2cc1O	> 100	> 100	> 100							
CCC(CO)Nc1nc2ccc(Cl)cc2c2ccccc12 (centres undefined)				6.14 µM	18.8	10.1 µM	21.7 µM	6.13 µM	20.9 µM	
N#CC(c1ccc(Cl)cc1)c1cccc(C(C#N)c2ccc(Cl)cc2)n1 (centres undefined)		> 100								
O=C1C(=O)N(c2ccc(Cl)cc2Cl)C(=O)C(=O)C1c1nc2ccccc2s1		> 92.2	> 100							
COc1ccc2c(c1)/C(=C/c1c(C)nc3sc(C)nn13)C(=O)N2						5.69 µM	> 100 µM	2.53 µM	> 100 µM	
CSc1nc2c(c(=O)[nH]1)N=C1c3ccccc3C(=O)C1C(c1ccccc1)N2 (centres undefined)				0.494 µM	6.91	5.35 µM	> 100 µM	4.6 µM	> 100 µM	
COc1cc2c(cc1OC)-c1c3cc(O)ccc3nn[n+]1CC2		> 100	> 100							
Cc1cc(C)nc(NS(=O)(=O)c2ccc(NC(=O)c3ccc(Cl)c4c(Nc5ccc(S(=O)(=O)Nc6nc(C)cc(C)n6)cc5)c5ccccc5nc34)cc2)n1	> 100	84.2	6.53							
Cn1c2ccccc2c2c(Nc3ccccc3)c3ccccc3nc21				2.7 µM	6.85	21.3 µM	47.8 µM	40.5 µM	> 100 µM	
CN(C)CC[N+]1=Nc2cccc3cccc(c23)N1	> 100	> 59.8	> 100							
Nc1ccccc1SC(C[N+](=O)[O-])c1ccc2c(c1)OCO2 (centres undefined)					9.35		15.2 µM		25.8 µM	4.63
CCCCC(=O)OCC(=O)[C@]1(O)Cc2c(O)c3c(c(O)c2[C@@H](OC2CC(NC(=O)C(F)(F)F)C(O)C(C)O2)C1)C(=O)c1c(OC)cccc1C3=O (some centres undefined)	6.44	13.2			> 100		9.7 µM		7.55 µM	5.02
COC1CCC2C(NS(=O)(=O)c3ccc(C)cc3)CCCC2O1 (centres undefined) (tested in a mixture with another compound)	> 34.5	> 34.5								
O=C(O)CCc1coc2ccc(O)cc12		> 100	> 100							
CCCCCCCCCCCCCCCCCC(CCCCCCCCCCCCCCCCC)OP(=O)(O)O			> 100							
CCN(CCO)CC1CCCC2CCCCC21 (centres undefined)					> 100		> 100 µM		> 100 µM	> 100
Cc1ccc(C(=O)/C(=C/c2ccc([N+](=O)[O-])cc2)SCc2ccc(Cl)cc2)cc1				1.86 µM	4.3	1.93 µM	4.09 µM	2.9 µM	36.7 µM	
NC(Cc1c[nH]c2c(O)cccc12)C(=O)O (centres undefined)				> 100 µM	> 100	> 100 µM	> 100 µM	> 100 µM	> 100 µM	
NC(=O)c1cccc2cn(-c3ccc([C@@H]4CCCNC4)cc3)nc12				12.7 µM	26.5	18.8 µM	40.9 µM	12.9 µM	35.5 µM	
O=C(/C=C/c1ccccc1)NC1C=Nc2ccc(Cl)cc2NC1=O (centres undefined)	> 100	> 100	> 100							

SMILES	TGI [1] [µM]	TGI [2] [µM]	TGI [3] [µM]	GI50 [4]	TGI [4] [µM]	GI50 [5]	TGI [5]	GI50 [6]	TGI [6]	TGI [7] [µM]
O=C(N/C(=C\c1ccc(/C=C(\NC(=O)c2ccccc2)c2nc3cc([N+](=O)[O-])ccc3[nH]2)cc1)c1nc2cc([N+](=O)[O-])ccc2[nH]1)c1ccccc1	> 100	> 100	> 100							
CN1C(=O)C(C)(C)C2(SC(C)(C)C2(C)C)N(C)C1=S (centres undefined)		> 100	> 100							
COc1cc(/C=N/NC(=O)c2ccc(C(F)(F)F)nc2Nc2ccc(Cl)cc2C)ccc1O				3.08 µM	11	1.34 µM	9.69 µM	1.49 µM	18 µM	
Cc1ccc(NC2=C(Cl)C(=O)N(Cc3ccccc3)C2=O)cc1O				29 µM	> 100			44.9 µM	> 100 µM	
CC(C)=CC(=O)C1c2cccc(O)c2C(=O)c2c(O)cc(C)cc21 (centres undefined)		7.89	4.03							
O=C(O)CSc1ccc([N+](=O)[O-])cc1[N+](=O)[O-]					> 100		> 100 µM		> 100 µM	> 100
CCCCCN(CCCCC)CC(O)c1cc(C)c2ccc3cc(C(C)C)ccc3c2c1 (centres undefined)				1.72 µM	3.21	1.85 µM	3.51 µM	1.95 µM	4.38 µM	
Cc1nc2ccccc2c(=O)n1-c1ccccc1I		> 100								
COC(CN1C(=O)c2cccc3cccc(c23)C1=O)OC		> 100	> 100							
Clc1cc2nsnc2c(Cl)n1		42.1	31.7							
O=C1C2C(C(=O)N1OS(=O)(=O)c1ccccc1)N(Cc1ccccc1)C(=O)N2Cc1ccccc1 (centres undefined)	> 100	> 100								
COc1ccc2c3c1C(=O)CCCC3CO2 (centres undefined)		> 100								
CC12CCC(O)CC1CCC1C2CCC2(C)C(C3=CC(=O)OC3)CCC12O (centres undefined)					9.38		4.53 µM		14.7 µM	6.38
OCc1ccc(N2CCC2c2ccc(F)cc2)cc1Cl (centres undefined)				26.6 µM	> 75.7	21.2 µM	49.9 µM	0.209 µM	1.72 µM	
C=C1C(=O)C23CC1CCC2C12CO[C@@H]4OCC(C)(CC[C@@H]1OC3=O)C42 (some centres undefined)	47.8		15.5							
NNC(=O)Nc1cccnc1					> 100				> 100 µM	> 100
CC1(c2ccc(F)cc2)C(C#N)C(=O)NC(=O)C1C#N (centres undefined)	> 100	> 100								
COC1CCC(N2C(=O)CNc3ncc(-c4ccc(C(C)(C)O)nc4)nc32)CC1 (centres undefined)				0.668 µM and 0.167 µM	3.28	0.329 µM and 0.0572 µM	3.6 µM and 0.991 µM	0.159 µM and 0.0258 µM	0.786 µM and 0.306 µM	
O=C1C=C(Cl)C(=O)C(c2ccc(Cl)cc2)=C1					46.6		46 µM		84.4 µM	27.5
COc1ccc(C(=O)Cn2c(C(=O)c3ccccc3)nc(-c3ccc(OC)cc3)c2-c2ccc(OC)cc2)cc1				> 100 µM	> 100	> 100 µM	> 100 µM	> 100 µM	> 100 µM	
